According to patent publication US4129577A (priority 1977, dated 1978):

Key:
[1] = system: KB cell; assay type: cell-based, human; details: for Activity in μg/ml (ED50 = concentration causing 50% inhibition of growth): kb cells
[2] = system: pigeons; details: in vivo, po
[3] = system: pigeons; details: in vivo
[4] = system: mice; details: mouse, in vivo, ip

SMILES | times more active than T-2 toxin [1] | Activity in μg/ml (ED50 = concentration causing 50% inhibition of growth) [1] | toxicity relative to T-2 toxin [2] | vomiting [3] | toxicity relative to T-2 toxin [4]
CC(=O)OCC12CC(OC(=O)CC(C)C)C(C)=CC1OC1C(OC(C)=O)C(OC(C)=O)C2(C)C12CO2 (stereo not shown) [AT-2] | about 5,000 times | 10^-8 μg/ml | less than 1/6 | virtually completely eliminated | less than 1/2
CC(=O)OCC12CC(OC(=O)CC(C)C)C(C)=CC1OC1C(OC(=O)c3ccccc3)C(OC(C)=O)C2(C)C12CO2 (stereo not shown) [BzT-2] |  | 10 µg/mL |  |  | 
CCC(=O)OC1C2OC3C=C(C)C(OC(=O)CC(C)C)CC3(COC(C)=O)C(C)(C1OC(C)=O)C21CO1 (stereo not shown) [PT-2] |  | 10^-8 μg/ml |  |  | 
